According to patent publication EP4542231A1, “METHODS FOR IDENTIFYING AND STRATIFYING CANCERS AND CANCER PATIENTS BASED ON P2X4 RECEPTOR EXPRESSION” (Johann-Wolfgang-Goethe-Universität Frankfurt am Main, priority 2023, dated 2025):

Assays:
[1] = tested on: human CRC tumor organoids; settings: organoids that express P2X4 (CRC-organoid #1); previously shown, Schmitt et al, Nature, 2022; cited from earlier work
[2] = tested on: ATP-induced S6 phosphorylation in PDTOs; settings: selective P2X4, P2X1 or P2X7 inhibition; cited from earlier work
[3] = tested on: human CRC tumor organoids; test: Survival of human CRC tumor organoids in response to 5-FU in the absence or presence of 5-BDBD; assay type: cell-based; settings: colorectal cancer organoids that do not express P2X4 protein; 5-FU +/- P2X4 inhibitor (Fig. 3C)
Source text: (§1) Survival of SU-DHL5 cells in response to doxorubicin in the absence or presence of 5-BDBD (B). Survival of human CRC tumor organoids in response to 5-FU in the absence or presence of 5-BDBD (C).
(§2) The inventors had previously shown that blocking P2X4 would sensitize organoids to 5-FU treatment (Schmitt et al, Nature, 2022). The inventors now confirmed that these organoids indeed express P2X4 (Fig. 3A, CRC-organoid #1).

[4] = tested on: SU-DHL5 lymphoma cells; test: Survival of SU-DHL5 cells in response to doxorubicin in the absence or presence of 5-BDBD; assay type: cell-based; settings: lymphoma cells that do not express P2X4 protein; doxorubicin +/- 5-BDBD (Fig. 3B)
Source text: as §1, §2

SMILES | sensitization of organoids to 5-FU treatment [1] | ATP-induced S6 phosphorylation [2] | sensitization towards P2X4 inhibition [3] | sensitization towards P2X4 inhibition [4]
O=C1CN=C(c2cccc(Br)c2)c2oc3ccccc3c2N1 [5-BDBD, 5-(3-Bromophenyl)-1,3-dihydro-2H-Benzofuro[3,2-e]-1,4-diazepin-2-one] | sensitize | reduced | no sensitization | no sensitization
Clc1cccc(-c2nnnn2Cc2cccnc2)c1Cl [A-438079] | – | no effect | – | –
O=C(Nc1ccc(C(=O)Nc2ccc(C(=O)Nc3ccc(S(=O)(=O)O)c4cc(S(=O)(=O)O)cc(S(=O)(=O)O)c34)cc2)cc1)Nc1ccc(C(=O)Nc2ccc(C(=O)Nc3ccc(S(=O)(=O)O)c4cc(S(=O)(=O)O)cc(S(=O)(=O)O)c34)cc2)cc1 [NF279] | – | no effect | – | –
